As a reminder, the IC50 is the concentration that inhibits the measured activity by half. Low values mean inhibition by little substance, high ones a need for much substance.

Data on 15 compounds can be found in patent publication US20250214991A1 (Oncopia Therapeutics, Inc. d/b/a/ SK Life Science Labs, priority 2022, published 2025).

One assay concerns the target IKZF1 (Homo sapiens (Human), UniProt Q13422+Q96SW2). The assay can be described thus: In vitro IKZF1 HiBit Assay (HEK293T Flp-in-HiBiT-IKZF1 stable cell line). Format: cell-based. To be noted: HEK293T Flp-in-HiBiT-IKZF1 stable cell line, 6 hrs incubation; for DC50: read-out: IKZF1 HiBit DC50; for Dmax: HEK-293T, read-out: IKZF1 HiBit Dmax (%). Put shortly:
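Degradation was measured as loss of luminescence from the HiBiT-IKZF1 tag after 6 h compound treatment, with 0.1% final DMSO, in stable HEK293T Flp-in cells. Values were normalized to DMSO, giving the 50% degradation concentration and the maximal degradation range.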

Another assay deals with CRBN/DDB1 (Homo sapiens (Human), UniProt Q96SW2). Description: IC50 measurements for binding to CRBN/DDB1 (HTRF). To be noted: His tagged CRBN+DDB, Cy5-labeled Thalidomide probe, one hour. Put shortly:
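Serially diluted compounds compete with a Cy5-labeled thalidomide tracer (60 nM) for His-tagged CRBN-DDB1 (2 nM), detected via anti-6His Tb cryptate (0.4 nM); buffer HEPES pH 7.5 with TCEP, Brij-35, NaCl, BSA. One-hour room-temperature incubation, HTRF signal read, IC50 by four-parameter curve.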
(In general: TR-FRET usually uses a lanthanide donor and a delayed reading to cut background.)

Assay [1] concerns the target T1, IKZF2 (Homo sapiens (Human), UniProt Q96SW2+Q9UKS7). The assay can be described thus: In vitro IKZF2 HiBit Assay (HEK293T Flp-in-HiBiT cells). To be noted: HEK293T Flp-in-HiBiT cells, 6 hrs incubation; for DC50: read-out: IKZF2 HiBit DC50; for Dmax: HEK-293T, read-out: IKZF2 HiBit Dmax (%). The assay is classed as cell-based. In a few lines:
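Remaining tagged Helios was read as lytic HiBiT/LgBiT luminescence normalized to DMSO, yielding binned DC50 and Dmax values. Treatment ran 6 h, with compounds at 11 three-fold doses diluted from 1 mM and 0.1% final DMSO. The cells were HEK293T Flp-in with CRISPR knock-in of HiBiT at the IKZF2 N-terminus.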

Assay [2] has as its target T1, IKZF2. Description: In vitro IKZF2 FACS Assay in Jurkat cells. To be noted: 24 hrs; for DC50: half maximal degradation concentration; for Dmax: maximal degradation percentage. The assay is classed as cell-based. The method, then: In vitro IKZF2 FACS Assay
DC50, A: <1 nM; B: 1-10 nM; C: 10-100 nM; D: 100-1000 nM; E: >1000 nM. Dmax, A: >80%; B: 60-80%; C: 40-60%; D: 20-40%; E: <20%.

Structures are written as SMILES.

Sequence of CRBN/DDB1 (Q96SW2 whole entry, species assumed): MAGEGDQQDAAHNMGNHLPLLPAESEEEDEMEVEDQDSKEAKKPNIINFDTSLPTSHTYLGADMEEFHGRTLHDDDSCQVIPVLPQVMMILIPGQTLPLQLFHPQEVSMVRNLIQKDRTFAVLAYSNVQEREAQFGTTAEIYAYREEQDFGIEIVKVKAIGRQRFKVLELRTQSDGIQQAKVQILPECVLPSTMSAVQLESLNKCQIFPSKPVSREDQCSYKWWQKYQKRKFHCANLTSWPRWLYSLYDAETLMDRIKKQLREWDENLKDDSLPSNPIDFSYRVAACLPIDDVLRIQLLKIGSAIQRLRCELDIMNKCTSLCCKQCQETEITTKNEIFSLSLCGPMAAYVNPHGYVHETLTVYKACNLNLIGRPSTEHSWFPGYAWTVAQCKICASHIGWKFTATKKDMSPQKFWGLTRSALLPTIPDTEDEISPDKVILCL
Sequence of CRBN/DDB1 (Q16531 whole entry partner, species assumed): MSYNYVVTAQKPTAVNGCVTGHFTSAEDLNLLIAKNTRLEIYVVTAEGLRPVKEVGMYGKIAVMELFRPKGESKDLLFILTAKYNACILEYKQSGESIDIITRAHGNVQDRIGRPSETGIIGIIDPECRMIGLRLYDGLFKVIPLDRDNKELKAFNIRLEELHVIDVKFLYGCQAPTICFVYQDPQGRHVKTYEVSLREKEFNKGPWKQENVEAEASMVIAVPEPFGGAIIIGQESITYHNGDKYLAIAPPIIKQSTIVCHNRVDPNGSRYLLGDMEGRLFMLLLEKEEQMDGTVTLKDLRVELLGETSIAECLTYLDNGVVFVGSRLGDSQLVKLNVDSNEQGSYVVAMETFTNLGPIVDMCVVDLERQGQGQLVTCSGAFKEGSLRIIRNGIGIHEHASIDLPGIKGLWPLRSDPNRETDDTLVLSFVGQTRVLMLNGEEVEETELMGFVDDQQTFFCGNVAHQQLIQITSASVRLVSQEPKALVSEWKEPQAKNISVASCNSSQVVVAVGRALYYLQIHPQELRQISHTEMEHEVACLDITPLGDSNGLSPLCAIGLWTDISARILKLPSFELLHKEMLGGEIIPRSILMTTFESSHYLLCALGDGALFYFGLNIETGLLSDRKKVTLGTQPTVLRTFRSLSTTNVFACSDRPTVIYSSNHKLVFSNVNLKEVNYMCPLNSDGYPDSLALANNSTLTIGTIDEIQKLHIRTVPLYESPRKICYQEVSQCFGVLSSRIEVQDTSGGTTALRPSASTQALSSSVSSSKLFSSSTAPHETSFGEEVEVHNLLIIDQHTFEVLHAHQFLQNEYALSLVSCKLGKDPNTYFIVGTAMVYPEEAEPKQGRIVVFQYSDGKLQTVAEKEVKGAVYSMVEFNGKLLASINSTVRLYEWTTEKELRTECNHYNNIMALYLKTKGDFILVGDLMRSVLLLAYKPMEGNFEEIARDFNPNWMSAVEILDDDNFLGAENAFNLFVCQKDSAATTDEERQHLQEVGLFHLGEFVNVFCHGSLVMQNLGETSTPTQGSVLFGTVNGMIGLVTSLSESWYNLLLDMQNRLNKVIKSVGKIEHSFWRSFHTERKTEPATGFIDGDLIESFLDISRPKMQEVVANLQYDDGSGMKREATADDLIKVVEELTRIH
Sequence of IKZF1 (Q13422 whole entry): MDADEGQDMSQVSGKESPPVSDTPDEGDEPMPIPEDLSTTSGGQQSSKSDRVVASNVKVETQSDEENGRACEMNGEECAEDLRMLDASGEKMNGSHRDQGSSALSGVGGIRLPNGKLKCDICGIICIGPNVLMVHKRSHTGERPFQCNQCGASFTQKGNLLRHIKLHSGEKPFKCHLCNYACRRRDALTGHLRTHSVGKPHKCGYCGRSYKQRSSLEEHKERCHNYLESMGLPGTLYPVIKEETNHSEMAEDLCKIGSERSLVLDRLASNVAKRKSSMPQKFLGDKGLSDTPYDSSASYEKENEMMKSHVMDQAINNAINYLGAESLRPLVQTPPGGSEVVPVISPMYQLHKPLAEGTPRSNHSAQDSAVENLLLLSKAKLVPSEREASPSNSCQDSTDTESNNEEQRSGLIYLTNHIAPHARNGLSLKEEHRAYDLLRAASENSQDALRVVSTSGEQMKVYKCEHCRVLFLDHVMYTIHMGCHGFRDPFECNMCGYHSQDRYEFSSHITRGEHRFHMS
Sequence of IKZF1 (Q96SW2 whole entry): as the sequence (Q96SW2 whole entry, species assumed) above
Sequence of IKZF1 (Q16531 2-1140 partner): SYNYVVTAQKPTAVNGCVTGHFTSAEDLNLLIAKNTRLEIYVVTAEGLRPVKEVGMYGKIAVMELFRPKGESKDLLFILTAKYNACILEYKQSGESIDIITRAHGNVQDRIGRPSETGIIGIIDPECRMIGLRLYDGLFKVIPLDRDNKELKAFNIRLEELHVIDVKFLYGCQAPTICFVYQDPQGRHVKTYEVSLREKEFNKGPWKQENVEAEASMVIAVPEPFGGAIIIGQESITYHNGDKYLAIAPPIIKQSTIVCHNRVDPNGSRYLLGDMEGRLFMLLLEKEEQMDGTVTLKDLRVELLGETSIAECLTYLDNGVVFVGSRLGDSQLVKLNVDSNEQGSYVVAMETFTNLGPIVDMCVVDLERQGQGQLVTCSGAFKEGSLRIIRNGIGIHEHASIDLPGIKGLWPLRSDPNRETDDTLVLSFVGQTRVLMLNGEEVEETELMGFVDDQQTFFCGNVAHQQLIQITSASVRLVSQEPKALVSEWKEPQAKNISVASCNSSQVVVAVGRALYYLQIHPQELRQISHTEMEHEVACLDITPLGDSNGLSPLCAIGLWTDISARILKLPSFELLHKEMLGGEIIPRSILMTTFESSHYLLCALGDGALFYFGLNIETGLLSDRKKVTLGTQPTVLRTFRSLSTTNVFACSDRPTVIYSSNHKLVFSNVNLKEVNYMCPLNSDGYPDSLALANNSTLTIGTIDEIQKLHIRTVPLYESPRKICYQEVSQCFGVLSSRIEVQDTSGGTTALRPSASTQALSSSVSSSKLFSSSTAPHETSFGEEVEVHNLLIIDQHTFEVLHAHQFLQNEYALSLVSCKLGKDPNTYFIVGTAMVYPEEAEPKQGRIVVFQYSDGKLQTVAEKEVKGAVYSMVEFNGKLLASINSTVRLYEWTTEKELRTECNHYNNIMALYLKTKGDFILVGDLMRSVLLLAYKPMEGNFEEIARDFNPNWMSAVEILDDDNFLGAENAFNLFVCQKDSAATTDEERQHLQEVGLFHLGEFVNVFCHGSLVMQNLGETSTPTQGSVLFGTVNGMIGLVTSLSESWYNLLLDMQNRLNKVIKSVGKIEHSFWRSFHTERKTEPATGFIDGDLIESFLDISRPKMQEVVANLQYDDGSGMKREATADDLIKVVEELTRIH
T1 sequence (Q9UKS7 whole entry): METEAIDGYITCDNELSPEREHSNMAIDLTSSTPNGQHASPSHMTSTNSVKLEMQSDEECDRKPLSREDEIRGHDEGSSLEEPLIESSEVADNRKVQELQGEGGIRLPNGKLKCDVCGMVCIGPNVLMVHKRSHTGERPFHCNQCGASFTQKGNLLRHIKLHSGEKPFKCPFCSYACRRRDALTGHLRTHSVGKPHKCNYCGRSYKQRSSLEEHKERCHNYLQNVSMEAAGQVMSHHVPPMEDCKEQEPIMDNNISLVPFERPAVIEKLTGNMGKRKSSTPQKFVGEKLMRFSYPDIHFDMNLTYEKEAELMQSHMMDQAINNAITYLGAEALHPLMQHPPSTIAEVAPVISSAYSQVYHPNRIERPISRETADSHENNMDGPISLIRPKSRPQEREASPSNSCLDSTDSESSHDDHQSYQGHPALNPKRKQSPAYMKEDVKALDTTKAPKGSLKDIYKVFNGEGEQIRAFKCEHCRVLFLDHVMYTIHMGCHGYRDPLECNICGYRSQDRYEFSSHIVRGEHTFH
T1 sequence (Q96SW2 whole entry): as the sequence (Q96SW2 whole entry, species assumed) above
T1 sequence (Q16531 2-1140 partner): as the sequence (Q16531 2-1140 partner) above

Take `O=C1CCC(N2Cc3cc(-c4cc(CN5CCCC5)c5ccn(C6CCC6)c5n4)ccc3C2=O)C(=O)N1` (stereo not drawn) [Example 128, 3-(5-(1-cyclobutyl-4-(pyrrolidin-1-ylmethyl)-1H-pyrrolo[2,3-b]pyridin-6-yl)-1-oxoisoindolin-2-yl) piperidine-2,6-dione]: the DC50 on IKZF1 was 10 to 100 nM; on IKZF2 [1] it was under 1 nM; at IKZF2 [2], 1 to 10 nM. Also, the Dmax was 20 to 40% at IKZF1, over 80% at IKZF2 [1] and over 80% on IKZF2 [2]. This compound returned an IC50 at CRBN/DDB1 of 100 to 500 nM.
Regarding `O=C1CCC(N2Cc3cc(-c4cc(CN5CCCC5)c5ccn(C6CC6)c5n4)ccc3C2=O)C(=O)N1` (stereo not drawn) [Example 119, 3-(5-(1-cyclopropyl-4-(pyrrolidin-1-ylmethyl)-1H-pyrrolo[2,3-b]pyridin-6-yl)-1-oxoisoindolin-2-yl) piperidine-2,6-dione], the DC50 is 1000 to 10000 nM at IKZF1, under 1 nM on IKZF2 [1] and 1 to 10 nM at IKZF2 [2]. Further, the Dmax on IKZF1 was 20 to 40%; on IKZF2 [1], over 80%; at IKZF2 [2], over 80%. This compound had an IC50 on CRBN/DDB1 of 1000 to 5000 nM.
Take `CC(C)Nc1ccnc2c(CN3CCCC3)cc(-c3ccc4c(c3)CN(C3CCC(=O)NC3=O)C4=O)nc12` (stereo not drawn) [Example 236, 3-(5-(8-(isopropylamino)-4-(pyrrolidin-1-ylmethyl)-1,5-naphthyridin-2-yl)-1-oxoisoindolin-2-yl) piperidine-2,6-dione]: the values for the DC50 at IKZF1, at IKZF2 [1] and at IKZF2 [2] were over 10000 nM, 10 to 100 nM and over 1000 nM, respectively. Also, the Dmax on IKZF1 was under 20%; on IKZF2 [1], 20 to 40%; on IKZF2 [2], under 20%. On CRBN/DDB1, this compound gave an IC50 of 1000 to 5000 nM.
Consider `O=C1CCC(N2Cc3cc(-c4cc(CN5CCCC5)c5nccc(OC6CCC6)c5n4)ccc3C2=O)C(=O)N1` (stereo not drawn) [Example 239, 3-(5-(8-cyclobutoxy-4-(pyrrolidin-1-ylmethyl)-1,5-naphthyridin-2-yl)-1-oxoisoindolin-2-yl) piperidine-2,6-dione], for which the DC50 on IKZF1 is over 10000 nM; at IKZF2 [1], 1 to 10 nM; at IKZF2 [2], 10 to 100 nM. For the same compound, the Dmax on IKZF1 is under 20%; on IKZF2 [1] it was 60 to 80%; at IKZF2 [2], 60 to 80%. On CRBN/DDB1, this compound came in with an IC50 of 1000 to 5000 nM.
As to `Nc1n[nH]c2c(CN3CCC4(CC3)COC4)cc(-c3ccc4c(c3)CN(C3CCC(=O)NC3=O)C4=O)nc12` (stereo not drawn) [Example 216, 3-(5-(7-((2-oxa-7-azaspiro[3.5]nonan-7-yl)methyl)-3-amino-1H-pyrazolo[4,3-b]pyridin-5-yl)-1-oxoisoindolin-2-yl) piperidine-2,6-dione], the DC50 at IKZF1 was 100 to 1000 nM; on IKZF2 [1], 10 to 100 nM; on IKZF2 [2], 100 to 1000 nM. The Dmax on IKZF1 lay within 20 to 40%; on IKZF2 [1] it was 60 to 80%; on IKZF2 [2], 60 to 80%. The compound also came in with a 50% inhibitory concentration (IC50) on CRBN/DDB1 of 1000 to 5000 nM.
In the case of `O=C1CCC(N2Cc3cc(-c4cc(CN5CC(F)C5)c5ccn(C6COC6)c5n4)ccc3C2=O)C(=O)N1` (stereo not drawn) [Example 161, 3-(5-(4-((3-fluoroazetidin-1-yl)methyl)-1-(oxetan-3-yl)-1H-pyrrolo[2,3-b]pyridin-6-yl)-1-oxoisoindolin-2-yl) piperidine-2,6-dione], the DC50 on IKZF1 was over 10000 nM; at IKZF2 [1], 1 to 10 nM; on IKZF2 [2] it was 10 to 100 nM. The Dmax at IKZF1 was under 20%; on IKZF2 [1] it was 60 to 80%; on IKZF2 [2], 60 to 80%. Further, the IC50 on CRBN/DDB1 was in the range of 100 to 500 nM.
For the compound `O=C1CCC(N2Cc3cc(-c4nc(CN5CCCC5)c5ccn(C6COC6)c5n4)ccc3C2=O)C(=O)N1` (stereo not drawn) [Example 218, 3-(5-(7-(oxetan-3-yl)-4-(pyrrolidin-1-ylmethyl)-7H-pyrrolo[2,3-d]pyrimidin-2-yl)-1-oxoisoindolin-2-yl) piperidine-2,6-dione], the values for the DC50 at IKZF1, on IKZF2 [1] and on IKZF2 [2] were 100 to 1000 nM, 1 to 10 nM and 10 to 100 nM, respectively. Further, the Dmax at IKZF1 lay in the range of 20 to 40%; at IKZF2 [1], 60 to 80%; at IKZF2 [2] it was 60 to 80%. The compound further gave an IC50 on CRBN/DDB1 of 500 to 1000 nM.
In the case of `O=C1CCC(N2Cc3cc(-c4cc(CN5CCCCC5)cc5cncn45)ccc3C2=O)C(=O)N1` (stereo not drawn) [Example 3, 3-(1-oxo-5-(7-(piperidin-1-ylmethyl)imidazo[1,5-a]pyridin-5-yl)isoindolin-2-yl) piperidine-2,6-dione], the DC50 on IKZF1 was over 10000 nM; on IKZF2 [1], 10 to 100 nM; at IKZF2 [2] it was 10 to 100 nM. The figures for the Dmax on IKZF1, on IKZF2 [1] and at IKZF2 [2] were under 20%, 60 to 80% and 40 to 60%, respectively. This compound came in with a half-inhibitory concentration (IC50) on CRBN/DDB1 of 100 to 500 nM.
Consider `O=C1CCC(N2Cc3cc(-c4cc(CN5CCC(O)CC5)c5ccn(C6COC6)c5n4)ccc3C2=O)C(=O)N1` (stereo not drawn) [Example 162, 3-(5-(4-((4-hydroxypiperidin-1-yl)methyl)-1-(oxetan-3-yl)-1H-pyrrolo[2,3-b]pyridin-6-yl)-1-oxoisoindolin-2-yl) piperidine-2,6-dione], for which the DC50 at IKZF1 fell in the range of 100 to 1000 nM; on IKZF2 [1] it was 10 to 100 nM; at IKZF2 [2], 10 to 100 nM. Also, the figures for the Dmax at IKZF1, at IKZF2 [1] and on IKZF2 [2] were 20 to 40%, 60 to 80% and over 80%, respectively. On CRBN/DDB1, this compound gave an IC50 of 100 to 500 nM.
As for `O=C1CCC(N2Cc3cc(-c4cc(CN5CCCC5)c5ccn(C6CS(=O)(=O)C6)c5n4)ccc3C2=O)C(=O)N1` (stereo not drawn) [Example 176, 3-(5-(1-(1,1-dioxidothietan-3-yl)-4-(pyrrolidin-1-ylmethyl)-1H-pyrrolo[2,3-b]pyridin-6-yl)-1-oxoisoindolin-2-yl) piperidine-2,6-dione], the DC50 lay within 10 to 100 nM at IKZF1, 1 to 10 nM at IKZF2 [1] and 1 to 10 nM on IKZF2 [2]. Moreover, the Dmax on IKZF1 was 20 to 40%; on IKZF2 [1], over 80%; at IKZF2 [2] it was 60 to 80%. This compound also registered an IC50 at CRBN/DDB1 of 500 to 1000 nM.
As to `O=C1CCC(N2Cc3cc(-c4cc(CN5CCC6(CC5)COC6)cc5cncn45)ccc3C2=O)C(=O)N1` (stereo not drawn) [Example 10, 3-(5-(7-((2-oxa-7-azaspiro[3.5]nonan-7-yl)methyl)imidazo[1,5-a]pyridin-5-yl)-1-oxoisoindolin-2-yl) piperidine-2,6-dione], the results for the DC50 at IKZF1, on IKZF2 [1] and on IKZF2 [2] were over 10000 nM, 1000 to 10000 nM and 1 to 10 nM, respectively. In addition, the Dmax at IKZF1 was under 20%; at IKZF2 [1], 40 to 60%; on IKZF2 [2], 40 to 60%. In addition, the IC50 on CRBN/DDB1 lay within 500 to 1000 nM.
Regarding `O=C1CCC(N2Cc3cc(-c4nc5[nH]ccc5c(CN5CCCC5)c4Cl)ccc3C2=O)C(=O)N1` (stereo not drawn) [Example 221, 3-(5-(5-chloro-4-(pyrrolidin-1-ylmethyl)-1H-pyrrolo[2,3-b]pyridin-6-yl)-1-oxoisoindolin-2-yl) piperidine-2,6-dione], the DC50 at IKZF1 was over 10000 nM; at IKZF2 [1], 1 to 10 nM; at IKZF2 [2], 1 to 10 nM. The figures for the Dmax at IKZF1, on IKZF2 [1] and at IKZF2 [2] were under 20%, over 80% and over 80%, respectively. The same compound registered a 50% inhibitory concentration (IC50) at CRBN/DDB1 of 100 to 500 nM.
On to `O=C1CCC(N2Cc3cc(-c4cc(CN5CC(F)C5)c5cc[nH]c5n4)ccc3C2=O)C(=O)N1` (stereo not drawn) [Example 117, 3-(5-(4-((3-fluoroazetidin-1-yl)methyl)-1H-pyrrolo[2,3-b]pyridin-6-yl)-1-oxoisoindolin-2-yl) piperidine-2,6-dione], for which the DC50 at IKZF1 is over 10000 nM; on IKZF2 [1] it was 1 to 10 nM; at IKZF2 [2] it was 1 to 10 nM. The figures for the Dmax at IKZF1, at IKZF2 [1] and on IKZF2 [2] were under 20%, over 80% and over 80%, respectively. Besides, the IC50 on CRBN/DDB1 is 100 to 500 nM.
On to `O=C1CCC(N2Cc3c(ccc(-c4cc(CN5CCCC5)c5ccn(C6COC6)c5n4)c3Cl)C2=O)C(=O)N1` (stereo not drawn) [Example 228, 3-(4-chloro-5-(1-(oxetan-3-yl)-4-(pyrrolidin-1-ylmethyl)-1H-pyrrolo[2,3-b]pyridin-6-yl)-1-oxoisoindolin-2-yl) piperidine-2,6-dione], for which the figures for the DC50 on IKZF1, on IKZF2 [1] and at IKZF2 [2] were over 10000 nM, 1 to 10 nM and 10 to 100 nM, respectively. Further, the Dmax on IKZF1 was under 20%; at IKZF2 [1], 60 to 80%; on IKZF2 [2] it was 60 to 80%. This compound gave a half-maximal inhibitory concentration (IC50) on CRBN/DDB1 of 100 to 500 nM.
`O=C1CCC(N2Cc3cc(-c4ncc5cc(CN6CCCC6)ccn45)ccc3C2=O)C(=O)N1` (stereo not drawn) [Example 52, 3-(1-oxo-5-(7-(pyrrolidin-1-ylmethyl)imidazo[1,5-a]pyridin-3-yl)isoindolin-2-yl) piperidine-2,6-dione]: the DC50 was over 10000 nM at IKZF1, 1 to 10 nM at IKZF2 [1] and 10 to 100 nM at IKZF2 [2]. The Dmax was under 20% on IKZF1, 60 to 80% on IKZF2 [1] and 40 to 60% at IKZF2 [2]. In addition, on CRBN/DDB1, the IC50 lay in the range of 500 to 1000 nM.
